Measured values from patent US20060142591A1, “DAPH analogs and inhibition of protein aggregation” (priority 2004, published 2006).

Experiments:
amyloid β (Aβ) fibers = amyloid β (Aβ) fibers (Homo sapiens, UniProt P05067); conditions: Blanchard et al., PNAS 101:14326-14332, 2004; cited from earlier work
Aβ4230k = Aβ4230k (Homo sapiens, UniProt P05067); assay: Coincubation with seedless Aβ42 (fibrillization), observed by EM; assay type: biochemical
Aβ fibrils = Aβ fibrils (Homo sapiens, UniProt P05067); assay: Reversal of preformed Aβ fibrils, observed by EM; assay type: biochemical; conditions: Aβ aggregated 24 h at pH 7.4, then another 24 h with equimolar compound; vehicle 1% DMSO
Description: Aβ42Total is unfractionated synthetic Aβ42 that was dissolved in water at pH 8-9 by using NH3 or at pH 10-11 by using dilute NaOH and stored at −40° C. Experimental samples were prepared by diluting the stock solution of Aβ42 to 10 μM (unless noted otherwise) in Tyrode's solution 2 mM Ca (150 mM NaCl/3 mM KCl/10 mM Hepes, pH 7.4/2 mM CaCl2/10 mM D-glucose, pH 7.4/0.02% Na azide). The synthetic Aβ42 was dissolved in water at a pH of ˜8 and then stored at −20° C. until diluted into Tyrode's Solution/2 mM Ca (pH 7.4). This preparation is “Aβ42Total”. To aggregate for use in experiments, it was preincubated for 24 or 48 h at 37° C. without stirring. Negative-staining EM was used to visualize the kinetics and morphology of Aβ42 fibrillization over time, with and without the presence of DAPH analogs. Samples of 10 μM seedless Aβ42 (Aβ4230k) were incubated for a predetermined amount of time at 37° C. and vigorously vortex mixed immediately before and after incubation. Very small volumes, typically 5 μl, of each sample were absorbed for 2-4 min onto glow-discharged, carbon-coated, Formvar-filmed 400 mesh copper grids and gently wicked away with filter paper. […] Measurements were analyzed, and width-distribution histograms were produced by using EXCEL 98 (Microsoft). […]

Sup35 NM protein [1] = target: T1, Sup35 NM protein (Saccharomyces cerevisiae, UniProt P05453); assay: NM seed assay; assay type: biochemical, yeast; conditions: disaggregated monomers used as seed at 2% or 5%
T1 construct: Soluble Sup35 NM protein (“NM”) was tested for aggregation
T1 sequence (P05453 1-253 limits assumed): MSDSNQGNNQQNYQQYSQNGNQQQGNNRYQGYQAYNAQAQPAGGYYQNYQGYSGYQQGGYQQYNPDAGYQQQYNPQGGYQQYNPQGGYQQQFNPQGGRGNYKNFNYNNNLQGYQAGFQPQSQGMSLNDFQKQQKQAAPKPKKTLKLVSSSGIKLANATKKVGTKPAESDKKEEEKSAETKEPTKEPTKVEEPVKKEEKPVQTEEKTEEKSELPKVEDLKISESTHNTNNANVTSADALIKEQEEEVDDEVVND
Description: Monomers of NM disaggregated by treatment with DAPH and DAPH analogs (see below) were tested for the ability to “seed” new NM fibers. Disaggregated monomers were used at 2% or 5% as described above for the NM aggregation assay.
(§1) Congo red was added to NM aggregation, NM disaggregation or NM seed reaction mixtures following incubation to a final concentration of 10 μM. After 30 min at 25° C., absorbances at 320, 477, and 540 nm were determined. Congo red dye binding was measured by using the equation [(OD540/25,295)−(OD477/46,306)] (Klunk et al., J. Histochem. Cytochem. 37:1273-1279, 1989) as described by Schirmer and Lindquist (Proc. Natl. Acad. Sci USA 94:13932-13937, 1997).

Sup35 NM protein [2] = target: T1, Sup35 NM protein; assay: NM aggregation assay; assay type: biochemical, yeast; conditions: soluble NM 5 μM
Description: Soluble Sup35 NM protein (“NM”) was tested for aggregation in the presence of DAPH, DAPH analogs or vehicle control (DMSO). NM protein (5 μM) was aggregated in the presence of DAPH (0-20 μM), DAPH analogs (0-20 μM) or DMSO (0-2% v/v). The assay mixture was incubated for 24 hr at 25° C., then tested for Congo Red binding to determine the extent of NM fiber formation.
as §1
Soluble Sup35 NM (“NM”) at 5 μM was tested for aggregation in the presence of DAPH, DAPH analogs or vehicle control (DMSO). Aggregation of NM was inhibited by up to 100% (see FIG. 1). Inhibition of NM aggregation was concentration dependent.

Aβ42Total = Aβ42Total (Homo sapiens, UniProt P05067); assay: Reversal of aggregated Aβ42Total fibrils, ThT assay; assay type: biochemical; conditions: depends on the concentration of compound
Description: Aβ42Total is unfractionated synthetic Aβ42 that was dissolved in water at pH 8-9 by using NH3 or at pH 10-11 by using dilute NaOH and stored at −40° C. Experimental samples were prepared by diluting the stock solution of Aβ42 to 10 μM (unless noted otherwise) in Tyrode's solution 2 mM Ca (150 mM NaCl/3 mM KCl/10 mM Hepes, pH 7.4/2 mM CaCl2/10 mM D-glucose, pH 7.4/0.02% Na azide). The synthetic Aβ42 was dissolved in water at a pH of ˜8 and then stored at −20° C. until diluted into Tyrode's Solution/2 mM Ca (pH 7.4). This preparation is “Aβ42Total”. To aggregate for use in experiments, it was preincubated for 24 or 48 h at 37° C. without stirring. To measure β-sheet formation, ThT was added to protein or peptide reaction mixtures, such as Aβ samples or NM aggregation, NM disaggregation or NM seed reaction mixtures following incubation and fluorescent measurements were read according to standard procedures. […] ThT fluorescence is measured at room temperature (e.g., in a Fluoroskan II at […] or a FLUOstar Optima plate-reader (BMG Lab Technologies, Durham, N.C.) at Ex=440 nm and Em=480 nm). The ThT fluorescence spectrum is measured in an spectrofluorimeter (e.g., f4500, Hitachi, Tokyo) at Ex=435 nm and Em=450-550 nm. Fibrils of aggregated Aβ42Total give a strong ThT fluorescence signal, indicating high β-sheet content.

[3] = test system: RML strain of mouse scrapie; assay type: in vivo, CD1 mice
NM protein fibers = target: T2, NM protein fibers (Saccharomyces cerevisiae, UniProt P05453); assay: NM disaggregation assay; assay type: biochemical, yeast
T2 construct: Soluble Sup35 NM protein (“NM”) was tested for aggregation
T2 sequence (P05453 1-253 limits assumed): T1 sequence (P05453 1-253 limits assumed)
Description: For determining disaggregation of preformed aggregates, NM protein fibers (equivalent to 5 μM monomer) were incubated with DAPH (0-20 μM), DAPH analogs (0-20 μM) or DMSO (0-2% v/v). The assay mixture was incubated for 24 hr at 25° C., then tested for Congo Red or Thioflavin T binding to determine the extent of NM fibers remaining.
as §1
To measure β-sheet formation, ThT was added to protein or peptide reaction mixtures, such as Aβ samples or NM aggregation, NM disaggregation or NM seed reaction mixtures following incubation and fluorescent measurements were read according to standard procedures.
For measurement, each sample preferably is split into multiple wells of a 96-well black-bottom plate (e.g., catalog no. 35-3943, VWR International, Westchester, Pa.). ThT fluorescence is measured at room temperature (e.g., in a Fluoroskan II at […] or a FLUOstar Optima plate-reader (BMG Lab Technologies, Durham, N.C.) at Ex=440 nm and Em=480 nm). The ThT fluorescence spectrum is measured in an spectrofluorimeter (e.g., f4500, Hitachi, Tokyo) at Ex=435 nm and Em=450-550 nm.

[4] = 1% brain homogenate incubated 48 hours with compound, lower doses of infectivity, log rank test

Sequence of Aβ42Total (P05067 672-713 limits assumed): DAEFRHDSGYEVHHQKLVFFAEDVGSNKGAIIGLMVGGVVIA
Sequence of Aβ4230k (P05067 672-713 limits assumed): as above
Sequence of Aβ fibrils (P05067 672-713 limits assumed): as above
Sequence of amyloid β (Aβ) fibers (P05067 672-713 limits assumed): as above

| SMILES | disaggregation of amyloid β (Aβ) fibers (amyloid β (Aβ) fibers) | elimination of higher-order structure, EM studies (Aβ4230k; 24 h incubation) | elimination of the usual fibrils, as observed by EM (Aβ4230k; coincubation of Aβ4230k with equimolar compound (10:10 μM), 1% DMSO) | reversal of aggregation of Aβ fibrils as determined by EM (Aβ fibrils) | ability of NM protein to reform NM fibers following disaggregation (Sup35 NM protein [1]) | effect on NM fiber assembly / NM aggregation (in words) (Sup35 NM protein [2]) | inhibition of NM aggregation (Sup35 NM protein [2]; compound 0-20 μM, 24 hr at 25° C., Congo Red binding, FIG. 1, concentration dependent) | time for reversal of the fibrils, as detected by the ThT assay (Aβ42Total) | effect on survival / prion titers (in words) [3, 4] | effect of treatment at high doses of infectivity ([3]; high doses of infectivity) | disaggregation of preformed NM fibers as compared to the DMSO control (NM protein fibers; preformed NM aggregates, FIGS. 2 and 3) | dissolution of NM fibers as measured by Congo Red binding (NM protein fibers; preformed NM fibers, FIG. 2) | dissolution of NM fibers as measured by ThT fluorescence (NM protein fibers; preformed NM fibers, FIG. 3) | median survival longer than DMSO controls ([3]; 1% brain homogenate incubated 48 hours with compound, lower doses of infectivity, CD1 mice n=4 per group, log rank test) |
| --- | --- | --- | --- | --- | --- | --- | --- | --- | --- | --- | --- | --- | --- | --- |
| O=C1NC(=O)c2cc(Nc3ccccc3)c(Nc3ccccc3)cc21 [DAPH, 4,5-dianilinophthalimide] | can disaggregate amyloid β (Aβ) fibers | nearly complete elimination of higher-order structure | almost complete elimination of the usual fibrils | reversed the aggregation of the Aβ fibrils | essentially unable to reform NM fibers | antagonizes NM fiber assembly | up to 100% | takes only very few minutes | did not significantly alter survival | not observed | effective in disaggregation of preformed fibers | partially dissolve NM fibers | partially dissolve NM fibers | – |
| COc1ccc(Nc2cc3c(cc2Nc2ccc(OC)cc2)C(=O)NC3=O)cc1 [DAPH-12, 5,6-Bis-(4-methoxy-phenylamino)-isoindole-1,3-dione] | – | – | – | – | – | – | – | takes only very few minutes | reduction in prion titers | – | – | – | – | at least 60 days |
